Test results as given in patent US7462600B2, “Macrolides” (Pfizer Inc, priority 2004, dated 2008).
≈ marks a conversion by molar mass, not a printed value. Read-outs that look alike come from different tables or passages of the source.

Key:
Type in all cases: cell-based
[1] = system: Streptococcus pyogenes 1079; experiment: MIC, microtiter broth dilution (NCCLS M100-S14), S. pyogenes 1079 (ermB)
Method in brief: (§1)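 Susceptibility testing used microtiter trays with broth dilution. Values are minimum inhibitory concentrations interpreted under NCCLS guidance (M100-S14).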

[2] = system: Streptococcus pneumoniae 1016; experiment: MIC, microtiter broth dilution (NCCLS M100-S14), S. pneumoniae 1016 (susceptible)
Method in brief: as §1

[3] = system: Streptococcus pneumoniae 1095; conditions: microtiter broth dilution
Method in brief: as §1

[4] = system: Streptococcus pneumoniae 1175; conditions: microtiter broth dilution
Method in brief: as §1

[5] = system: Haemophilus influenzae 1218; experiment: MIC, microtiter broth dilution (NCCLS M100-S14), H. influenzae 1218 (susceptible)
Method in brief: as §1

[6] = S. pneumoniae 1016 (susceptible)
[7] = H. influenzae 1218 (susceptible)

Row | SMILES | MIC S. pyogenes 1079 ([1]; S. pyogenes 1079 (ermB)) | MIC S. pneumo. 1016 [2, 6] | MIC S. pneumo. 1095 ([3]; S. pneumoniae 1095 (ermB)) | MIC S. pneumo. 1175 ([4]; S. pneumoniae 1175 (mefA)) | MIC H. influenzae 1218 [5, 7] | MIC S. pyogenes 1079 ([1]; Streptococcus pyogenes 1079) | MIC S. pneumo. 1016 ([2]; Streptococcus pneumoniae 1016) | MIC S. pneumo. 1095 ([3]; Streptococcus pneumoniae 1095) | MIC S. pneumo. 1175 ([4]; Streptococcus pneumoniae 1175) | MIC H. influenzae 1218 ([5]; Haemophilus influenzae 1218)
1 | CCC1OC(=O)C(C)C(=O)C(C)C(OC2OC(C)CC(N(C)C)C2O)C(C)(OC)CC(C)C(=O)C(C)C2N(CC3CCN(C(=O)c4cc5ccccn5n4)C3)C(=O)OC12C (stereo not drawn) [11.16] | >64.00 µg/mL | <0.06 µg/mL | 8 µg/mL (≈ 9.52 µM) | 0.5 µg/mL (≈ 0.595 µM) | 8 µg/mL (≈ 9.52 µM) | – | – | – | – | –
2 | CCC1OC(=O)C(C)C(=O)C(C)C(OC2OC(C)CC(N(C)C)C2O)C(C)(OC)CC(C)C(=O)C(C)C2N(C3CN(S(=O)(=O)c4ccc(OC)nc4)C3)C(=O)OC12C (stereo not drawn) [Example 3.38, 6-methoxypyridine-3-sulfonyl] | – | – | – | – | – | 64 µg/mL (≈ 76.3 µM) | <0.06 µg/mL | 1 µg/mL (≈ 1.19 µM) | <0.06 µg/mL | 0.5 µg/mL (≈ 0.596 µM)
3 | CCC1OC(=O)C(C)C(=O)C(C)C(OC2OC(C)CC(N(C)C)C2O)C(C)(OC)CC(C)C(=O)C(C)C2N(C3CN(S(=O)(=O)c4cccc(-c5ncco5)c4)C3)C(=O)OC12C (stereo not drawn) [Example 3.65, 3-descladinosyl-11,12-dideoxy-6-O-methyl-3-oxo-12,11-(oxycarbonyl-(1-(3-(oxazol-2-yl)benzenesulfonyl)-azetidin-3-yl)-imino)-erythromycin A] | – | – | – | – | – | 1 µg/mL (≈ 1.14 µM) | <0.06 µg/mL | <0.06 µg/mL | <0.06 µg/mL | 0.12 µg/mL (≈ 0.137 µM)
4 | CCC1OC(=O)C(C)C(=O)C(C)C(OC2OC(C)CC(N(C)C)C2O)C(C)(OC)CC(C)C(=O)C(C)C2N(C3CN(S(=O)(=O)c4ccc(Oc5ccccn5)cc4)C3)C(=O)OC12C (stereo not drawn) [Example 3.34, 4-(pyridin-2-yloxy)benzenesulfonyl] | – | – | – | – | – | 64 µg/mL (≈ 71 µM) | <0.06 µg/mL | 1 µg/mL (≈ 1.11 µM) | 0.12 µg/mL (≈ 0.133 µM) | 16 µg/mL (≈ 17.8 µM)
5 | CCC1OC(=O)C(C)C(=O)C(C)C(OC2OC(C)CC(N(C)C)C2O)C(C)(OC)CC(C)C(=O)C(C)C2N(C3CN(S(=O)(=O)c4cccnc4)C3)C(=O)OC12C (stereo not drawn) [Example 3.01, 3-descladinosyl-11,12-dideoxy-6-O-methyl-3-oxo-12,11-(oxycarbonyl-(1-(pyridine-3-sulfonyl)-azetidin-3-yl)-imino)-erythromycin A] | – | – | – | – | – | 4 µg/mL (≈ 4.94 µM) | <0.06 µg/mL | <0.06 µg/mL | <0.06 µg/mL | 0.25 µg/mL (≈ 0.309 µM)
6 | CCC1OC(=O)C(C)C(=O)C(C)C(OC2OC(C)CC(N(C)C)C2O)C(C)(OC)CC(C)C(=O)C(C)C2N(CC3CCCN3C(=O)c3ccnc4ncsc34)C(=O)OC12C (stereo not drawn) [10.44] | >64.00 µg/mL | <0.06 µg/mL | <0.06 µg/mL | 0.12 µg/mL (≈ 0.14 µM) | 1 µg/mL (≈ 1.17 µM) | – | – | – | – | –
7 | CCC1OC(=O)C(C)C(=O)C(C)C(OC2OC(C)CC(N(C)C)C2O)C(C)(OC)CC(C)C(=O)C(C)C2N(CC3CN(C(c4ccccc4)c4ccccc4)C3)C(=O)OC12C (stereo not drawn) [Example 4.01, 3-descladinosyl-11,12-dideoxy-6-O-methyl-3-oxo-12,11-(oxycarbonyl-(1-(benzhydryl)-(azetidin-3-yl)-methyl)-imino)-erythromycin A] | – | – | – | – | – | 6.25 µg/mL (≈ 7.37 µM) | <0.00 µg/mL | 0.39 µg/mL (≈ 0.46 µM) | 0.39 µg/mL (≈ 0.46 µM) | 6.25 µg/mL (≈ 7.37 µM)
8 | CCC1OC(=O)C(C)C(=O)C(C)C(OC2OC(C)CC(N(C)C)C2O)C(C)(OC)CC(C)C(=O)C(C)C2N(C3CN(Cc4c(OC)ccc5ncccc45)C3)C(=O)OC12C (stereo not drawn) [Example 1.102, 3-descladinosyl-11,12-dideoxy-6-O-methyl-3-oxo-12,11-(oxycarbonyl-(1-(6-methoxyquinoline-5-methyl)-azetidin-3-yl)-imino)-erythromycin A] | – | – | – | – | – | 1 µg/mL (≈ 1.19 µM) | <0.063 µg/mL | <0.063 µg/mL | <0.063 µg/mL | 2 µg/mL (≈ 2.38 µM)
9 | CCC1OC(=O)C(C)C(=O)C(C)C(OC2OC(C)CC(N(C)C)C2O)C(C)(OC)CC(C)C(=O)C(C)C2N(C3CN(S(=O)(=O)c4cc(Cl)ccc4OC)C3)C(=O)OC12C (stereo not drawn) [Example 3.106, 3-descladinosyl-11,12-dideoxy-6-O-methyl-3-oxo-12,11-(oxycarbonyl-(1-(5-chloro-2-methoxybenzene-1-sulfonyl)-azetidin-3-yl)-imino)-erythromycin A] | – | – | – | – | – | 0.5 µg/mL (≈ 0.573 µM) | <0.063 µg/mL | <0.063 µg/mL | <0.063 µg/mL | 0.5 µg/mL (≈ 0.573 µM)
